Measurements: BindingDB's records for doi:10.1016/s0960-894x(03)00677-2 (Pharmacor, 2003)
pIC50: −log10 of the molar value.

The molecules below were run against T1, Dimer of Gag-Pol polyprotein [501-599] (Human immunodeficiency virus 1, UniProt P03367) (assay: Protease Inhibition Assay). Conditions: pH 4.7; 30 °C.
T1 construct: 501-599
Procedure: HIV-1 protease activity was measured by a continuous fluorometric assay using the internally quenched fluorogenic substrate DABCYL-Ser-Gln-Asn-Tyr-Pro-Ile-Val-Gln-EDANS. The proteolytic activity can be monitored by the increase in fluorescence intensity, and the protease products were analyzed by HPLC.

Row | Compound | pIC50
1 | O[C@H]([C@@H](O)[C@H](COCc1ccccc1)OCc1ccccc1)[C@H](COCc1ccccc1)OCc1ccccc1 [(2S,3R,4R,5S)-1,2,5,6-tetrakis(benzyloxy)hexane-3,4-diol] | < 4.30
2 | O[C@H]([C@H](O)[C@@H](COCc1ccccc1)OCc1ccccc1)[C@@H](COCc1ccccc1)OCc1ccccc1 [(2R,3R,4S,5R)-1,2,5,6-tetrakis(benzyloxy)hexane-3,4-diol] | < 4.30
3 | O[C@@H]([C@H](O)[C@@H](Cc1ccccc1)OCc1ccccc1)[C@@H](Cc1ccccc1)OCc1ccccc1 [(2R,3S,4S,5R)-2,5-bis(benzyloxy)-1,6-diphenylhexane-3,4-diol] | < 4.30
4 | O[C@@H]([C@H](O)[C@@H](COCc1ccccc1)OCc1ccccc1)[C@H](COCc1ccccc1)OCc1ccccc1 [(2R,3S,4S,5S)-1,2,5,6-tetrakis(benzyloxy)hexane-3,4-diol] | < 4.30
5 | O[C@H]([C@H](O)[C@H](COCc1ccccc1)OCc1ccccc1)[C@@H](COCc1ccccc1)OCc1ccccc1 [(2R,3R,4S,5S)-1,2,5,6-tetrakis(benzyloxy)hexane-3,4-diol] | < 4.30
6 | O[C@@H]([C@H](O)[C@@H](COc1ccccc1)OCc1ccccc1)[C@@H](COc1ccccc1)OCc1ccccc1 [(2R,3S,4S,5R)-2,5-bis(benzyloxy)-1,6-diphenoxyhexane-3,4-diol] | < 4.30
7 | O[C@@H](C[C@@H](COCc1ccccc1)OCc1ccccc1)[C@@H](COCc1ccccc1)OCc1ccccc1 [(2R,3S,5S)-1,2,5,6-tetrakis(benzyloxy)hexan-3-ol] | < 4.30
